Here are results for four molecules from US20040241754A1, “Modulating neuronal plasticity” (The Salk Institute for Biological Studies, priority 2003, published 2004).

Entries after “also recorded” stand apart in the source; their conditions may differ. Ends that are not written are not given here.

The test system of test [1] is mossy fiber synapses of hippocampal CA3 pyramidal neurons. The test is described as follows: Mossy fiber LTP, whole-cell patch clamp in hippocampal slices. In kind it is cell-based, mice. On the procedure:
The role of the GluR2 subunit in LTP at mossy fiber terminals was evaluated in whole cell patch clamp experiments using hippocampal CA3 pyramidal neurons. Briefly, transverse hippocampal slices (350 μm) were made from P12-18 mice (strain 129SvEv) as previously described (Contractor et al., Neuron 29, 209-16. (2001)). Slices were transferred to a recording chamber, and whole-cell patch clamp recordings made from visually identified pyramidal cells in the CA3 region of the hippocampus. The recording electrode (i.e., patch electrode) is filled with an “internal” solution described below. A seal between the glass of the electrode and the membrane of the cell is made. The seal is then “broken through” by pushing the electrode through the membrane to gain low resistance access to the cell interior and enable voltage clamping of the cell membrane. This also allows dialysis of the cell with test reagents such as peptides and antibodies. A stimulating electrode is attached to a current source and allows current to stimulate action potentials while a reference electrode is placed in the recording bath. The composition of the internal solution was: 95 mM CsF, 25 mM CsCl, 10 mM Cs-HEPES, 10 mM Cs-EGTA, 2 mM NaCl, 2 mM Mg-ATP, 10 mM QX-314, 5 mM TEA-Cl, 5 mM 4-AP, pH adjusted to 7.3 with CsOH.
Peptides were added directly to the internal solution on the day of the experiment from frozen stocks in protease inhibitors made up in phosphate buffered saline (PBS). To avoid leakage of peptides or antibodies into the extracellular space, pipette tips were filled with normal internal solution and then the pipette was backfilled with peptide/antibody containing internal fluid. The final concentration of peptides was 50 μM in all experiments. The final concentration of protease inhibitors were: bestatin 2 μg/ml, leupeptin 25 ng/ml, pepstatin 35 ng/ml, aprotinin 100 ng/ml.
In control experiments where peptides were not included, internal solutions were made up in exactly the same way with protease inhibitors in PBS but lacking any added peptide. Antibodies were made up in PBS stock and added directly to the internal solution at a final concentration of 20 μg/ml. The pH and osmolarity of all internal solutions were checked before use. Series resistances (Rs) were generally <10M and were continuously monitored throughout the duration of the experiment. […] Experiments using mutant mice were performed with heterozygous breedings blind to the genotype of the animal.
Mossy fiber EPSCs were evoked with a monopolar glass electrode positioned in the stratum lucidum. EPSCs were evaluated using a 40 ms interval between recordings. All recordings were made in the continuous presence of bicuculline (10 μM), picrotoxin (50 μM) and the NMDA receptor antagonist D-AP5 [D(-)-2-Amino-5-phosphonopentanoic acid; 50 μM]. The group II mGluR agonist, LCCG-1 (10 μM), which selectively depresses mossy fiber transmission, was applied at the end of each experiment. LTP was induced by tetanic stimulation comprising three 1 s stimulations (100 Hz) with a 10 s interval. Data are presented as mean±SEM. Parameters were compared using the Student's unpaired t-test where not specified, and the K-S test, p<0.05 was considered significant.
Cumulative probability is determined by ranking the EPSC data set from the highest to the lowest value from 20 to 30 minutes post tetanization. Each point is graphed with its corresponding percentile. […] The lowest LTP value was about 40% signified by the lowest point on the 1 st graph (open circles) and the largest LTP was about 160%.
(In patch-clamp work, channel activity is measured electrically.)

In a further test the target is T1, GRIP PDZ4-6 (Rattus norvegicus, UniProt P97879).
T1 construct: corresponding to GRIP1 (amino acid 448-792); made in house; host or cells: E. coli BL21
T1 sequence (P97879 448-792): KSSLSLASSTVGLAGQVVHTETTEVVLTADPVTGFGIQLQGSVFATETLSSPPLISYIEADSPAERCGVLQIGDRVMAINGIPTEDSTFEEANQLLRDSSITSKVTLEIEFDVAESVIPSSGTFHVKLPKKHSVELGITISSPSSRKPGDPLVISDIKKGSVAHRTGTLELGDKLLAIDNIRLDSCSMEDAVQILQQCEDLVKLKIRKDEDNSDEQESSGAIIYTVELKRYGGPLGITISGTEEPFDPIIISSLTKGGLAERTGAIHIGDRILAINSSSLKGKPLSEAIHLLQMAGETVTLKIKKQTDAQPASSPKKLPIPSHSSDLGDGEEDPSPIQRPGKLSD
Nature of the test: Competitive binding of 35S-EphB2 to His-GRIP-PDZ4-6. Particulars: 35S-EphB2 50 nM; fitted to the Hill equation; read-out: Ki, displacement of 35S-EphB2 binding to His-GRIP-PDZ 4-6. On the procedure: A competitive binding assay was prepared to determine if the LTP inhibitory effects of the GluR2ct peptide were mediated through disruption of binding between Eph receptors and PDZ domain 6 of GRIP (Torres et al., Neuron 21, 1453-63. (1998)) as opposed to disruption of binding between the GluR2 subunit and the GluR2-binding PDZ 4 and 5 domains of GRIP (Dong et al., Nature 386, 279-84. (1997)). For this purpose, a binding assay was established between GRIP PDZ domain fragments (His-GRIP-PDZ4-6) and an EphB2 carboxy terminal fusion protein labeled with ^35S-methionine (^35S-EphB2).
(§1) Briefly, the carboxy terminal region of EphB2 corresponding to mouse EphB2 receptor (amino acid 930-993) was generated by PCR from mouse brain library and subcloned into pGEX2TK (Pharmacia). The GRIP(PDZ4-6) construct, corresponding to GRIP1 (amino acid 448-792) was obtained by PCR from an adult rat hippocampal library and subcloned into pRSET vector. E coli (strain BL21) were transformed with His-GRIP(PDZ4-6) and GST-EphB2 and protein production induced with IPTG. GST-EphB2 protein was purified on glutathionine beads and ^35S-EphB2 cleaved from GST with thrombin (1 U/μg). GRIP(PDZ4-6) protein was purified on Ni-NTA agarose, and eluted with imadazole. ^35S-EphB2 (50 nM) was incubated with (15 μg) of His-GRIP(PDZ4-6) protein in PBS buffer with protease inhibitors for 2 hrs at 22° C. in the absence or presence of peptides. ^35S-EphB2 binding to His-GRIP(PDZ4-6) was determined after a 45 min incubation with Ni-NTA agarose and vacuum filtration onto Whatman GFB filter circles (pretreated with 3% BSA). Filters were washed with ice-cold PBS buffer, allowed to equilibrate overnight in ECOLUME scintillation cocktail (ICN pharmaceuticals, Irvine Calif.), and specific counts measured in a scintillation counter. Non-specific binding was defined as the residual binding measured in the absence of His-GRIP(PDZ4-6).
(In general: Loss of bound radioactivity is the signal in a displacement assay; it reports binding, not function.)

In another test the target is T2, GRIP PDZ 6 domain (Rattus norvegicus, UniProt P97879).
T2 construct: a GRIP fragment containing only the PDZ 6 domain; made in house; host or cells: E. coli BL21 (inferred from the PDZ4-6 construct)
T2 sequence (P97879 672-754 limits assumed): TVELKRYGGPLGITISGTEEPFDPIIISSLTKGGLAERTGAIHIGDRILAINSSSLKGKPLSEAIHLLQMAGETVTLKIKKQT
Nature of the test: Competitive binding of 35S-EphB2 to His-GRIP-PDZ6.
From the text: as §1, with “His-GRIP(PDZ4-6). […]” for “His-GRIP(PDZ4-6).”

The target of a further test is T3, EphA8 (Mus musculus, UniProt O09127).
T3 sequence (O09127 27-1004): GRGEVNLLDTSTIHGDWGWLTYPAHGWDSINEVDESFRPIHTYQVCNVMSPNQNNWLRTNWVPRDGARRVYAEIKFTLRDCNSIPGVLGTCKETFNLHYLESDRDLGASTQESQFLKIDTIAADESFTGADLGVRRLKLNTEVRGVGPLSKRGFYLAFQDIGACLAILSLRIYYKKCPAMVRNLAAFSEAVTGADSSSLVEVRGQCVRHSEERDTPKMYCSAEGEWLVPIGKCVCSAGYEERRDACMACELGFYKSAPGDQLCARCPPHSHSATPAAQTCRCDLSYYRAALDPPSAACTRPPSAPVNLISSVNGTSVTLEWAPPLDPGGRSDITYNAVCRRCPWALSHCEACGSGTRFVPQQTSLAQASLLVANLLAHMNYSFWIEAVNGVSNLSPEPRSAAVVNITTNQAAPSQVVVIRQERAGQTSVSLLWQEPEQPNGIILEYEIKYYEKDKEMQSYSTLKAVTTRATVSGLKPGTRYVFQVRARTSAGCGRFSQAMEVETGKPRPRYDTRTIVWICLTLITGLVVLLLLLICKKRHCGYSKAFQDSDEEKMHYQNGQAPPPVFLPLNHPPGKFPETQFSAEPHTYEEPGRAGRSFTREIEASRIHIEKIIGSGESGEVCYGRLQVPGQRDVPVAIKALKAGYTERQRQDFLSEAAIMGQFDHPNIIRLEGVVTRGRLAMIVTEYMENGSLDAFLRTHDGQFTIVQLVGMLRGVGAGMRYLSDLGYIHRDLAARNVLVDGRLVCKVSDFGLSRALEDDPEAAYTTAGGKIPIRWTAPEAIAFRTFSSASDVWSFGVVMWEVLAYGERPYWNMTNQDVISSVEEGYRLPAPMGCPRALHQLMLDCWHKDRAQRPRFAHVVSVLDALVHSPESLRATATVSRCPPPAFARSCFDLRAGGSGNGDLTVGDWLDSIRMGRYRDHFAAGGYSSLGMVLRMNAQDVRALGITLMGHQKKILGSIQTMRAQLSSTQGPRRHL
Particulars: read-out: Kd for binding to EphA8; cited from earlier work.

For another test, the target named is EphA3. Particulars: read-out: Kd for binding to EphA3; cited from earlier work.
The next test has as its target EphA4 (Homo sapiens, UniProt P54764). Particulars: read-out: Kd for binding to EphA4; cited from earlier work.
For another test, the target named is T4, His-GRIP(PDZ4-6) (rat, UniProt P97879 448-792).
T4 construct: range 448-792; not shown: His tag and vector residues from pRSET
T4 sequence (looked up): T1 sequence (P97879 448-792)
The test is described as follows: displacement of ^35S-EphB2 (50 nM) from His-GRIP-PDZ4-6, Hill fit.

[2] abbreviates: peptide 50 μM in patch electrode, 40 ms interval.

As usually defined, the Ki is the equilibrium dissociation constant of an inhibitor or competing ligand from its target. As a reminder, the Kd is the free concentration of one partner at which half of the binding sites on the other are occupied at equilibrium, for simple one-to-one binding.

EphA4, sequence (P54764 20-986, species assumed): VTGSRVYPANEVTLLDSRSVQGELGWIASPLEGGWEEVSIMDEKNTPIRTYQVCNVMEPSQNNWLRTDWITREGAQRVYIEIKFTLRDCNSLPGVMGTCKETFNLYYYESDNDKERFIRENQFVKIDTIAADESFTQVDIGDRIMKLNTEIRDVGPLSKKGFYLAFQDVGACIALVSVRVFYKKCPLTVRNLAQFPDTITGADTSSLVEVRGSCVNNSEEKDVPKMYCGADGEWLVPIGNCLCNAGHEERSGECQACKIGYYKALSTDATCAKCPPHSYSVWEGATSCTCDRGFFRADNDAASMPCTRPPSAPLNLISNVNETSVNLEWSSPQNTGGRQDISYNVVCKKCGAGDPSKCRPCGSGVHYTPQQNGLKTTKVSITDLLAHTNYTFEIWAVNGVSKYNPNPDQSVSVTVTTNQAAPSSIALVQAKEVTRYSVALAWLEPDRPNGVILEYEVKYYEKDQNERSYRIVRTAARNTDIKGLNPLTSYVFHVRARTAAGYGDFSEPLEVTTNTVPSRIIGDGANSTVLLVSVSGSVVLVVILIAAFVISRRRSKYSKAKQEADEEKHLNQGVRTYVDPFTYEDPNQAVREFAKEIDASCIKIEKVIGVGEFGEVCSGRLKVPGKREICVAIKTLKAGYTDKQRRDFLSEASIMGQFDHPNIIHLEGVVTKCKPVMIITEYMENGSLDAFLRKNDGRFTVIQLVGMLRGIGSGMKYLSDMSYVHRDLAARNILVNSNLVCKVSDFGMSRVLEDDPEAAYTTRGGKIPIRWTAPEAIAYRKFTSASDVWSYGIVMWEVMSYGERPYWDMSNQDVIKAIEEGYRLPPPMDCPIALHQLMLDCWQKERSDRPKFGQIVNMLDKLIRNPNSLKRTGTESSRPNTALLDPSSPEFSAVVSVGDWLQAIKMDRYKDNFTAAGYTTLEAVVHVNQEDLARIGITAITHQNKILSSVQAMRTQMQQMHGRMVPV

With “NVYGIESVKI [GluR2ct, Asn-Val-Tyr-Gly-Ile-Glu-Ser-Val-Lys-Ile]”, the “LTP (potentiation of the EPSC after tetanic stimulation)” value in test [1] (peptide 50 μM in patch electrode (postsynaptic), 25 to 30 minutes after tetanic stimulation) came out at 140±11%. Moreover, in test [1] (setting [2]), the “LTP PPR (paired pulse ratio after LTP induction)” value was found to be 2.5±0.12 and the “control PPR (paired pulse ratio before LTP induction)” value is listed as 2.8±0.14. For the same molecule, in test [1] (peptide 50 μM in patch electrode, immediately following tetanic stimulation), the “PTP (post-tetanic potentiation)” value is given as 510±67%. Besides, in test [1] (peptide in patch electrode), the “effect on basal synaptic transmission / basal EPSC amplitudes” value is listed as “small effect on basal synaptic transmission in some neurons” and the “paired pulse ratio after LTP induction versus pretetanic” value was “no significant difference after induction of LTP”. Further, the “effect on tetanus induced LTP” value in test [1] (peptide in patch electrode (postsynaptic)) is “little potentiation was observed; also recorded: significantly less potentiation; also recorded: inhibit mossy fiber hippocampal CA3 neuronal LTP”. Also, the Ki at GRIP PDZ4-6 came to 106 nM. The “displacement of EphB2 from / binding to GRIP PDZ domain 6” value at GRIP PDZ 6 domain is on record as “binds directly to PDZ domain 6 of GRIP; also recorded: can displace EphB2”. Besides, at GRIP PDZ 6 domain (read-out: Ki, displacement of 35S-EphB2 binding to His-GRIP-PDZ6), the Ki is 155 nM.

B1: ephrin-A2: a 213 amino acid protein; ephrin ligand (protein, UniProt O43921 1-213, looked up)
chain: MAPAQRPLLPLLLLLLPLPPPPFARAEDAARANSDRYAVYWNRSNPRFHAGAGDDGGGYTVEVSINDYLDIYCPHYGAPLPPAERMEHYVLYMVNGEGHASCDHRQRGFKRWECNRPAAPGGPLKFSEKFQLFTPFSLGFEFRPGHEYYYISATPPNAVDRPCLRLKVYVRPTNETLYEAPEPIFTSNNSCSSPGGCRLFLSTIPVLWTLLGS
modifications: full-length
notes: a 213 amino acid protein; ephrin ligand
In the case of B1, the values for the Kd in the test with EphA8, at EphA3 and in the test with EphA4 were 1.3 nM, 1 nM and 10 nM, respectively.

B2: EphB2 carboxy terminal peptide (peptide)
peptide: QMNQIQSVEV
notes: also called EphB2 peptide
B2 gave a Ki with His-GRIP(PDZ4-6) of 43 nM.

B3: ephrin-A3: a 238 amino acid polypeptide; ephrin ligand (protein, UniProt P52797 1-238, looked up)
chain: MAAAPLLLLLLLVPVPLLPLLAQGPGGALGNRHAVYWNSSNQHLRREGYTVQVNVNDYLDIYCPHYNSSGVGPGAGPGPGGGAEQYVLYMVSRNGYRTCNASQGFKRWECNRPHAPHSPIKFSEKFQRYSAFSLGYEFHAGHEYYYISTPTHNLHWKCLRMKVFVCCASTSHSGEKPVPTLPQFTMGPNVKINVLEDFEGENPQVPKLEKSISGTSPKREHLPLAVGIAFFLMTFLAS
modifications: full-length
notes: a 238 amino acid polypeptide; ephrin ligand
For B3, the Kd was 1.1 nM with EphA8 and 5 nM at EphA3.
